Reference: patent publication US20090118135A1, “METHODS AND COMPOUNDS FOR REGULATING APOPTOSIS” (The Burnham Institute, priority 2007, published 2009)
Read-outs that look alike come from different tables or passages of the source.

Target: T1, GST-Bcl-B (Homo sapiens, UniProt Q9HD36)
T1 sequence (Q9HD36 1-182 limits assumed): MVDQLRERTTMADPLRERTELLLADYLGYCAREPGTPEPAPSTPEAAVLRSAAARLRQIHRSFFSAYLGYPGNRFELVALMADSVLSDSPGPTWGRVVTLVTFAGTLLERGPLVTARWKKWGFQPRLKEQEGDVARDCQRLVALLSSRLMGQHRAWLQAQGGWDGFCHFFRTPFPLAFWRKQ
Experiment: Bcl-B/FITC-TR3-r8 fluorescence polarization competition (displacement) assay, HTS and dose-response

[1] = Table 7, NCI Mechanistic library, Binding Assay, FP, Concentration 0.02 uM
[2] = read-out: Result Value (Result Type % Inhibition), BCL-b/TR3, Table 7, NCI Mechanistic library, Binding Assay, FP, Concentration 0.02 uM
[3] = read-out: Result Value (Result Type % Inhibition), BCL-b/TR3
[4] = Table 8, NCI Structural library, Binding Assay, FP, Concentration 0.02 uM
[5] = read-out: Result Value (Result Type % Inhibition), BCL-b/TR3, Table 8, NCI Structural library, Binding Assay, FP, Concentration 0.02 uM
[6] = LOPAC1280 library primary screen
[7] = LOPAC1280 library, fluorescence intensity normalized to plate negative controls
[8] = read-out: Result Value (% Inhibition)
[9] = read-out: Result Value (% Inhibition), LOPAC1280 (Sigma-Aldrich) library, BCL-b/TR3 Binding Assay, FP, Concentration 0.02 uM, % competition

Compound | F Ratio [1] | Is Hit [1] | inhibition at 0.02 µM [3] [%] | F Ratio [4] | Is Hit [4] | further results
CN1CC=C(Nc2ccc(C(=O)Nc3ccc(Nc4ccncc4)cc3)c([N+](=O)[O-])c2)c2cc([N+](=O)[O-])ccc21 [Compound 218439] | 0.07485 | Yes |  |  |  | inhibition at 0.02 µM [2]: 106%
c1ccc2c(NCCCCCCCCNc3c4ccccc4nc4ccccc34)c3ccccc3nc2c1 [Compound 219734] | 0.2008 | Yes |  |  |  | Result Value (Result Type % Inhibition), BCL-b/TR3 [1]: 53.437%
NC(=O)OCC1=C(COC(N)=O)C(=O)c2c(O)ccc(O)c2C1=O [Compound 224124] | 1.1456 | Yes | 145 |  |  | 
O=[N+]([O-])c1ccc(S(=O)(=O)Cc2ccccc2)c2nonc12 [Compound 228148] |  |  | 73.4 | 1.1364 | Yes | 
COc1cccc2c1C(=N)c1c(O)c3c(c(O)c1C2=O)C[C@@](O)(C(C)=O)C[C@@H]3OC1CC(N)C(O)C(C)O1 (stereo partly drawn) [Compound 254681] |  |  | 138 | 0.5232 | Yes | 
COc1ccc2c(NCCCCCCNc3c4ccccc4nc4cc(OC)ccc34)c3ccccc3nc2c1 [Compound 260610] | 0.269 | Yes | 53.3 |  |  | 
CC[n+]1c(-c2ccccc2)c2cc(N)ccc2c2ccc(N)cc21 [Compound 268986] | 0.3849 | Yes |  |  |  | inhibition at 0.02 µM [2]: 149%
Cc1nn(-c2ccc(S(=O)(=O)O)cc2)c(O)c1/N=N/c1ccc(-c2ccc(/N=N/c3ccc4c(S(=O)(=O)O)cc(S(=O)(=O)O)c(N)c4c3O)c(O)c2)cc1O [Compound 306711] |  |  | 154 | 0.08966 | Yes | 
CN(C)CCN1C(=O)c2cccc3cc(N)cc(c23)C1=O [Compound 308847] | 0.6345 | Yes |  |  |  | inhibition at 0.02 µM [2]: 87.6%
CC(=O)O.CCN(CC)CC[n+]1ccc2c(C)c3[nH]c4ccc(O)cc4c3c(C)c2c1 [Compound 311152] |  |  | 128 | 0.7711 | Yes | 
CC(=O)O.Cc1c2cc[n+](CCN3CCCCC3)cc2c(C)c2c1[nH]c1ccc(O)cc12 [Compound 311153] | 0.275 | Yes |  | 0.3973 | Yes | inhibition at 0.02 µM [2]: 120%; inhibition at 0.02 µM [5]: 128%
Nc1ccc2c(c1)CN1C(=O)c3ccccc3C1=N2 [Compound 320846] | 1.4904 | Yes |  |  |  | inhibition at 0.02 µM [2]: 60.7%
CN1CCN(c2ccc3nc(-c4ccc5[nH]c(-c6ccc(O)cc6)nc5c4)[nH]c3c2)CC1 [Compound 322921] |  |  |  |  |  | inhibition at 0.02 µM [5]: 71.6%
O=C1C(Cl)=C(Sc2nnc3c4ccccc4c4ccccc4c3n2)C(=O)c2ccccc21 [Compound 327705] |  |  |  | 0.2306 | Yes | inhibition at 0.02 µM [5]: 56.3%
CN(C)CCCNc1cc(O)c2c(c1O)C(=O)c1ccccc1C2=O [Compound 339585] |  |  | 110 | 0.1416 | Yes | 
Nc1nc(Sc2ccc([N+](=O)[O-])c3nonc23)c2nc[nH]c2n1 [Compound 348401] |  |  | 68.6 | 1.4788 | Yes | 
CCOc1ccc2nc3cc(/N=N/c4ccc(N)nc4N)ccc3c(N)c2c1.Cl [Compound 354961] |  |  | 150 | 1.1279 | Yes | 
N=C(N)c1ccc(/N=N/c2c(O)ccc3c2[nH]c2ccccc23)cc1 [Compound 357777] |  |  | 120 | 0.06989 | Yes | 
CCN(CC)Cc1cc(/N=N/c2c(O)ccc3c(/N=N/c4ccc(O)c(CN(CC)CC)c4)c(O)ccc23)ccc1O [Compound 359463] | 0.08773 | Yes | 94.9 |  |  | 

Compound | F Ratio [1] | Is Hit [1] | inhibition at 0.02 µM [3] [%] | F Ratio [4] | Is Hit [4] | further results
O=C1c2cccc(NCCCNCCO)c2C(=O)c2cccc(NCCCNCCO)c21 [Compound 363998] | 0.2213 | Yes | 115 |  |  | 
Ic1ccc2c(c1)N(c1ccccc1)c1cc(Nc3ccc4nc5ccc(I)cc5[n+](-c5ccccc5)c4c3)ccc1N2 [Compound 402959] |  |  | 61.8 | 0.6261 | Yes | 
COc1ccc2c(c1)-c1nn(CCCN(C)C)c3ccc([N+](=O)[O-])c(c13)N2 [Compound 627168] | 0.1807 | Yes |  |  |  | inhibition at 0.02 µM [2]: 64.4%
O=S(=O)(O)c1cc(/N=N/c2cc(S(=O)(=O)O)c3cccnc3c2O)ccc1/C=C/c1ccc(/N=N/c2cc(S(=O)(=O)O)c3cccnc3c2O)cc1S(=O)(=O)O [Compound 635352] | 0.04471 | Yes | 94 |  |  | 
O=C1C=C(N2CCNCC2)C(=O)c2c(O)ccc(O)c21 [Compound 658144] |  | Yes |  |  |  | 
O=C1C(Br)=C(N2CCN(CCOCCO)CC2)C(=O)c2c(O)ccc(O)c21 [Compound 659999] |  | Yes |  |  |  | 
O=C1C=C(NCCc2cc(Br)c(O)c(Br)c2)C(=O)c2ncccc21 [Compound 668394] |  |  | 81.8 | 0.1777 | Yes | 
CN(C)CCc1c2c(nc3ccccc13)C(=O)c1cccnc1C2=O [Compound 680734] | 0.1433 | Yes | 82.6 |  |  | 
CN(C)c1ccc(/C=c2\c3n(c4ccccc24)N(C)C(c2ccc(Cl)cc2)C=3)cc1.O=S(=O)(O)C(F)(F)F (stereo not drawn) [Compound 699479] | 0.1793 | Yes | 60.6 |  |  | 
C=CCN1C(=O)NC(=O)/C(=C/c2cccn2-c2cccc([N+](=O)[O-])c2)C1=O [Compound 5987504] |  |  |  |  |  | IC50 (Bcl-B IC50 (g/L)): 5.59 µM; IC50 (Bcl-B IC50 (uM)): 5.36 µM; Bcl-B H Coefficient (Hill coefficient of Bcl-B dose-response curve): 1.773
O=[N+]([O-])c1cc(O)c(O)c([N+](=O)[O-])c1 [Compound D-131] |  |  |  |  |  | Result Value (% Inhibition) (LOPAC1280 (Sigma-Aldrich) library, BCL-b/TR3 Binding Assay, FP, Concentration 0.02 uM, % competition): 68.095%; Is Hit [6]: Yes; F Ratio [7]: 0.1464
O=C(c1cc(O)c(O)c([N+](=O)[O-])c1)c1ccccc1F [Compound R-108] |  |  |  |  |  | Is Hit [6]: Yes; F Ratio [7]: 0.1164; inhibition at 0.02 µM [8]: 69.6%
Nc1c(S(=O)(=O)O)cc(Nc2ccc(Nc3nc(Cl)nc(Nc4ccc(S(=O)(=O)O)cc4)n3)c(S(=O)(=O)O)c2)c2c1C(=O)c1ccccc1C2=O [Compound R-115] |  |  |  |  |  | Is Hit [6]: Yes; F Ratio [7]: 0.1652; inhibition at 0.02 µM [8]: 80.8%
CN(N=O)c1cc(O)ccc1O [D 8065] |  |  |  |  |  | Is Hit [6]: Yes; F Ratio [7]: 0.1152; inhibition at 0.02 µM [9]: 95.3%
NC(Cc1cc(O)c(O)cc1O)C(=O)O (stereo not drawn) [H 2380] |  |  |  |  |  | F Ratio: 0.06315; Is Hit: Yes; inhibition at 0.02 µM [8]: 136%
O=c1cc(O)cc(/C=C/c2ccc(O)c(O)c2)o1 [H 5257] |  |  |  |  |  | Is Hit [6]: Yes; F Ratio [7]: 0.0971; inhibition at 0.02 µM [8]: 77%
O=C1c2c(O)ccc(O)c2C(=O)c2c(NCCNCCO)ccc(NCCNCCO)c21 [M 6545] |  |  |  |  |  | Is Hit [6]: Yes; F Ratio [7]: 1.1021; inhibition at 0.02 µM [8]: 148%
O=c1c(O)c(-c2cc(O)c(O)c(O)c2)oc2cc(O)cc(O)c12 [M 6750] |  |  |  |  |  | Is Hit [6]: Yes; F Ratio [7]: 0.1247; inhibition at 0.02 µM [8]: 61%
CN(N=O)c1ccc(O)c(O)c1 [M 9440] |  |  |  |  |  | Is Hit [6]: Yes; F Ratio [7]: 0.08483; inhibition at 0.02 µM [9]: 121%
